Values joined by “and” are separate entries in the source; they are usually repeats but may differ in a detail not shown here. Equal values may be shown once. Read-outs that look alike come from different tables or passages of the source.

What is called IC50 is the concentration needed to halve the response being measured. A word on the CLint scaled: it is a measure of how fast metabolising enzymes remove a compound, apart from limits set by blood flow. A word on the half-life: it is the time needed for the level to fall by half in the phase considered. For orientation: microsomal CLint means the capacity of the preparation to metabolise the compound, expressed as a volume cleared per time. Higher therefore signals rapid turnover. Usually kinetic solubility stands for the concentration staying in solution when a stock, usually in DMSO, is diluted into the medium.

For data set [1], the target named is T1, human neutrophil elastase (Homo sapiens (Human), UniProt P08246). The experiment in a line: Elastase inhibition assay, purified human neutrophil elastase. In kind it is biochemical. As to conditions: for LipE: Purified NHE; for IC50: purified HNE, read-out: IC50. The method, then: Serially diluted compounds in DMSO were dispensed into a 384-well black opaque plate by Echo dispenser. 0.1 μg/mL human neutrophil elastase (EPC, Catalog# SE563, Owensville, Ms.) or human sputum diluted with assay buffer (100 mM HEPES, 500 mM NaCl, 0.02% Tween 20) was added into the 384-well plate, and was incubated with different compounds at different concentrations for 30 minutes at room temperature. The final concentration of DMSO in the reaction was 0.1%. […] Slope of fluorescence intensity vs. time representing the Vmax of enzyme activity was calculated with MARS software. % relative inhibition was calculated as: […]
T1 sequence (P08246 30-247): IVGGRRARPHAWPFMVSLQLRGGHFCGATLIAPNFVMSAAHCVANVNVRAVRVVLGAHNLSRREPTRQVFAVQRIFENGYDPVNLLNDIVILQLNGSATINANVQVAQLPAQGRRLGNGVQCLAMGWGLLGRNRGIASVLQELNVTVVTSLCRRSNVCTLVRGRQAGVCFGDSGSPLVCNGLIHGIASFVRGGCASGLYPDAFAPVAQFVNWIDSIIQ
(§1) IC50 was calculated based on the % relative inhibition curve using log(agonist) vs. response (three parameters) method with Prism software. All experiments were performed in triplicate for at least three independent times.

Another data set can be described thus: in vitro. To be noted: mouse, pH 7.4; for Extraction ratio / Microsomal stability (Mouse ER) / Remaining (*NCF = 60min) / Remaining (T = 60 min): 1 μM; for Microsomal stability (Mouse ER) / Remaining (*NCF = 60min) / Remaining (T = 60 min) / CLint scaled at 1 μM / half-life at 1 μM / microsomal CLint at 1 μM: microsomes; for Remaining (*NCF = 60min) / Remaining (T = 60 min): 1 h. As for the experimental part:
100 mM potassium phosphate buffer, pH 7.4. • 2. 10 mM MgCl2 • 3) Compound Dilution:
Intermediate solution was prepared by diluting 5 μL of compound or control stock solution (10 mM in DMSO) with DMSO (45 μL) and 1:1 Methanol/Water (450 μL) (concentration=100 μM, 45% MeOH). Working solution was prepared by diluting 50 μL of the intermediate solution with 450 μL of 100 mM potassium phosphate buffer, pH=7.4 (centration=10 μM, 4.5% MeOH). • 4) NADPH regenerating system (final Isocitric dehydrogenase concentration=1 unit/mL at incubation) comprised:
10 μL/well of compound working solution or control working solution was added to all plates (T0, T5, T10, T20, T30, T60, NCF60) except the matrix blank. 80 μL/well of microsome solution was added to every plate. The mixtures of microsome solution and compound were incubated at 37° C. for about 10 min. 10 μL/well of NADPH regenerating system (pre-warmed to 37° C.) was then added to every plate to start the reaction. […] For NCF60 (abbreviation of no co-factor) no NADPH regenerating system was added, but was replaced by 10 μL/well of potassium phosphate buffer (100 mM, pH 7.4); the resulting mixture was incubated at 37° C. for 1 h.
The reactions were then terminated with the stop solution (cold at 4° C.) containing 100 ng/mL Tolbutamide and 100 ng/mL Labetalol ([…]). The sampling plates were shaken for approximately 10 minutes, then were centrifuged at 4000 rpm for 20 min at 4° C. While centrifuging, 8 new 96 well plates were loaded with […] of HPLC grade water. 100 μL of supernatant was finally added to 300 μL of HPLC grade water and mixed for LC/MS/MS analysis.
The equation of first order kinetics was used to calculate T1/2 and CIint(mic): […]

For data set [2], the target named is elastase in COPD patient sputum (Homo sapiens (Human), UniProt P08246). The experiment in a line: Elastase inhibition assay in COPD patient sputum. The format is biochemical. The method, then:
Serially diluted compounds in DMSO were dispensed into a 384-well black opaque plate by Echo dispenser. 0.1 μg/mL human neutrophil elastase (EPC, Catalog# SE563, Owensville, Ms.) or human sputum diluted with assay buffer (100 mM HEPES, 500 mM NaCl, 0.02% Tween 20) was added into the 384-well plate, and was incubated with different compounds at different concentrations for 30 minutes at room temperature. The final concentration of DMSO in the reaction was 0.1%. Elastase substrate MeOSuc-AAPV-AMC (Bachem, Catalog #I-1270, Torrance, CA) of 100 μM final concentration was then added into the reaction system just before enzyme kinetics were read on PheraSTAR plate reader at excitation of 380 nm and emission of 460 nm with a 3-minutes interval for 30 minutes in total. Slope of fluorescence intensity vs. time representing the Vmax of enzyme activity was calculated with MARS software. % relative inhibition was calculated as: […]
as §1
Human sputum was purchased from Discovery Life Sciences (Los Osos, CA). Human sputum was diluted 1:10 in volume with assay buffer (100 mM HEPES, 500 mM NaCl, 0.02% Tween 20) followed by vigorous vortexing. The 1:10 diluted human sputum was further diluted into 1:30, 1:90, 1:270, 1:810, and 1:2430. The elastase concentration was determined by elastase inhibition assay as described above. Specifically, a series of standards of human neutrophil elastase (starting at 2 μg/mL and further diluted 1:2 in volume) were prepared in the assay buffer. The samples and standards were plated in a 384-well black solid bottom plate; the substrate MeOSuc-AAPV-AMC of 100 μM final concentration was then added into the reaction system just before enzyme kinetics were read on PheraSTAR plate reader as mentioned above. The slope of enzymatic kinetic reading was calculated by MARS software. The elastase levels of the human sputum were calculated based on the standard curve.

In data set [3] the target is T1, human neutrophil elastase. The experiment in a line: Time dependence of elastase inhibition. In kind it is biochemical. The method, then: The procedure for the elastase inhibition assay was followed with slight modifications. 0.1 μg/mL human neutrophil elastase was incubated with a range of concentrations of inhibitors for 5, 15, 30 and 60 minutes before substrate MeOSuc-AAPV-AMC of 100 μM final concentration was added. Enzyme kinetics were read on PheraSTAR plate reader and IC50 was calculated with the method described above.

A further data set can be described thus: Kinetic Solubility Test. The format is physicochemical. To be noted: for solubility kinetic at 24 h: aqueous buffer, kinetic from dmso stock, phosphate buffer pH 6.8, 24 h; for Kinetic solubility (pH 6.8): summary table. As for the experimental part: The stock solution of each compound (10 μL; 10 mM in DMSO) was diluted with phosphate buffer solution (490 μL; 50 mM, pH 6.8). The resulting mixture was shaken for 24 h. Samples were then filtered.

Setting [4] is: 5 min incubation with inhibitor.
Where [5] appears, read: 15 min incubation with inhibitor.
[6] abbreviates: 30 min incubation with inhibitor.
Setting [7] is: 60 min incubation with inhibitor.

elastase in COPD patient sputum, sequence (P08246 30-267): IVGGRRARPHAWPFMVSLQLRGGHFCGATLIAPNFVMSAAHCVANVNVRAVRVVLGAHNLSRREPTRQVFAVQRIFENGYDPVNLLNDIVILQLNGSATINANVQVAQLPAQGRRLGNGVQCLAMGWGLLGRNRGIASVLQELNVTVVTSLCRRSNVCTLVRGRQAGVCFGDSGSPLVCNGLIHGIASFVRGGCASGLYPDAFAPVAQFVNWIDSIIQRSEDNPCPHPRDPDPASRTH

As for `CC(C)[C@H](NC(=O)[C@@H]1CCCN1C(=O)[C@@H](NC(=O)c1ccc(C(=O)NCC(=O)O)cc1)C(C)C)B(O)O` [Compound 52, (4-(((2S)-1-((2S)-2-((1-borono-2-methylpropyl)carbamoyl)pyrrolidin-1-yl)-3-methyl-1-oxobutan-2-yl)carbamoyl)benzoyl)glycine], in data set [1], the LipE is reported as 10.1 and the 50% inhibitory concentration (IC50) was determined as 0.015 nM. In the data set “in vitro”, the Extraction ratio is reported as below 0.3, the “Microsomal stability (Mouse ER)” value is below 0.3, the “Remaining (*NCF = 60min)” value worked out at 103.6% and the “Remaining (T = 60 min)” value was determined as 78.9%. In the data set “in vitro”, this molecule came in with a CLint scaled at 1 μM below 38 mL/min/kg, a half-life at 1 μM above 2.42 h and an intrinsic clearance (microsomal CLint) at 1 μM below 9.6 µL/min/mg. In data set [2], this molecule registered a concentration for half-maximal inhibition (IC50) of 0.0127 ± 0.0008 nM and a LipE of 10.2. The molecule also had an IC50 in data set [3] (setting [4]) of 0.004 nM. The molecule further displayed a 50% inhibitory concentration (IC50) in data set [3] (setting [5]) of 0.0047 nM. This molecule also gave a 50% inhibitory concentration (IC50) in data set [3] (setting [6]) of 0.0042 nM. The molecule further had an IC50 in data set [3] (setting [7]) of 0.0042 nM. Besides, in data set [3] (between 5-60 minutes), the “change of IC50 with increasing incubation times (in words)” value is “remain unchanged”. In “Kinetic Solubility Test”, the kinetic solubility at 24 h is > 104 µg/mL and > 200 µM; the “Kinetic solubility (pH 6.8)” value is listed as above 200 μm.
For the molecule `CC(C)[C@H](NC(=O)[C@@H]1CCCN1C(=O)[C@@H](NC(=O)c1ccc(C(=O)NS(=O)(=O)c2ccc(Cl)cc2)cc1)C(C)C)B(O)O` [Compound 51, (1-((S)-1-((4-(((4-chlorophenyl)sulfonyl)carbamoyl)benzoyl)-L-valyl)pyrrolidine-2-carboxamido)-2-methylpropyl)boronic acid], in data set [1], the “inhibitory activity against HNE (in words)” value was “substantially enhanced potency”, the LipE was found to be 7.33 and the IC50 was determined as 0.03 nM. In data set [1] (listed as mCBK 320), the “inhibitory activity against HNE (in words)” value is listed as “highly potent”. Besides, in the data set “in vitro”, the Extraction ratio was below 0.3, the “Microsomal stability (Mouse ER)” value was below 0.3, the “Remaining (*NCF = 60min)” value is 95.0% and the “Remaining (T = 60 min)” value worked out at 85.8%. Besides, in “in vitro”, the intrinsic clearance (CLint scaled) at 1 μM was below 38 mL/min/kg, the half-life at 1 μM is above 2.42 h and the microsomal CLint at 1 μM is below 9.6 µL/min/mg. In data set [2], this molecule registered a half-maximal inhibitory concentration (IC50) of 0.0223 ± 0.0006 nM and a LipE of 7.46. Besides, the half-inhibitory concentration (IC50) in data set [3] (setting [4]) is 0.027 nM. In addition, in data set [3] (setting [5]), the 50% inhibitory concentration (IC50) is 0.03 nM. It took 0.037 nM to reach half-maximal inhibition in data set [3] (setting [6]) (IC50). In addition, it took 0.026 nM to reach half-maximal inhibition in data set [3] (setting [7]) (IC50). Also, in the data set “Kinetic Solubility Test”, the solubility (kinetic) at 24 h was > 127 µg/mL and > 200 µM; the “Kinetic solubility (pH 6.8)” value was above 200 μm.

For the origin of these results see patent US12415819B2, “Cu- and Ni-catalyzed decarboxylative borylation reactions” (The Scripps Research Institute, priority 2017, dated 2025).
